Twelve molecules from ChEMBL document CHEMBL1128932, “Liposome-like fucopeptides as sialyl lewis X mimetics” (Bioorg Med Chem Lett, 1996) can be followed below.

pIC50: −log10 of the molar value.

The target in the first assay is T1, E-selectin (Homo sapiens, UniProt P16581).
T1 sequence (P16581 whole entry): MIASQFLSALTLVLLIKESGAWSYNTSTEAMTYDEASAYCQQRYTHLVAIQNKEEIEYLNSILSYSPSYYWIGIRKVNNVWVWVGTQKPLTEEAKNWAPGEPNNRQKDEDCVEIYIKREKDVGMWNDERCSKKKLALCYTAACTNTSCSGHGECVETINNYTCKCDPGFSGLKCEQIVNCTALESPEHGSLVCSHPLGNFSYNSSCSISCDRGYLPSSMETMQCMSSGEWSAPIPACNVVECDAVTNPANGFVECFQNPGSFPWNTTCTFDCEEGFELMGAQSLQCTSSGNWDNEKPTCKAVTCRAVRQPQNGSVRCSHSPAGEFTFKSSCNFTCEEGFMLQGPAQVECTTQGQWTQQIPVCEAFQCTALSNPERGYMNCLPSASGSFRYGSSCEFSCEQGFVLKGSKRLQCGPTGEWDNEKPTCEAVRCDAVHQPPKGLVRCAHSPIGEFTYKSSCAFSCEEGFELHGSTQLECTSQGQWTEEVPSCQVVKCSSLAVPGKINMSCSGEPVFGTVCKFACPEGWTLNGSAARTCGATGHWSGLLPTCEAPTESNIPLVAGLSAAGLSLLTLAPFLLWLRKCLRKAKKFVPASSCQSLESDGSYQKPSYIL
Description: Ability to inhibit sialyl Lewis X binding to Selectin E was determined.
Molecule `CC(=O)N[C@H]1[C@H]([C@H](O)[C@H](O)CO)O[C@@](O[C@H]2[C@@H](O)[C@@H](CO)O[C@@H](O[C@@H]([C@H](O[C@@H]3O[C@@H](C)[C@@H](O)[C@@H](O)[C@@H]3O)[C@H](C=O)NC(C)=O)[C@H](O)CO)[C@@H]2O)(C(=O)O)C[C@@H]1O` [SIALYL LEWIS X] had a pIC50 of 3.30.

The next assay addresses T1, E-selectin. Description: Inhibitory activity against Selectin E.
For `CCOC(=O)[C@@H](NC(=O)[C@@H]1C[C@H](O)CN1C(=O)CCCC(=O)O)[C@@H](C)O[C@@H]1O[C@@H](C)[C@@H](O)C(O)C1O` (some centres not stated), the pIC50 is 3.00.

As for `CCCCCCCCCCCCCCCCOC(=O)CC[C@H](NC(=O)CNC(=O)[C@@H](NC(=O)[C@H]1C[C@H](O)CN1C(=O)CCCC(=O)O)[C@@H](C)O[C@@H]1O[C@@H](C)[C@@H](O)C(O)C1O)C(=O)OCCCCCCCCCCCCCCCC` (some centres not stated), the pIC50 was 3.30.

Molecule `CCOC(=O)[C@@H](NC(=O)[C@@H]1[C@@H](O)[C@@H](O)CN1C(=O)CCCC(=O)O)[C@@H](C)O[C@@H]1O[C@@H](C)[C@@H](O)C(O)C1O` (some centres not stated) showed a pIC50 of 4.30.

As for `CCOC(=O)[C@@H](NC(=O)C1C[C@@H](O)CN1C(=O)CCCC(=O)O)[C@@H](C)O[C@H]1O[C@@H](C)[C@@H](O)C(O)C1O` (single isomer, unassigned), the pIC50 was 4.00.

`CCOC(=O)[C@@H](NC(=O)[C@H](NC(=O)CCCC(=O)O)[C@@H](O)CO)[C@@H](C)O[C@@H]1O[C@@H](C)[C@@H](O)C(O)C1O` (some centres not stated) had a pIC50 of 3.30.

As for `CCOC(=O)[C@@H](NC(=O)[C@@H]1C[C@@H](O)CN1C(=O)CCCC(=O)O)[C@@H](C)O[C@@H]1O[C@@H](C)[C@@H](O)C(O)C1O` (some centres not stated), the pIC50 was 3.52.

Take `CCOC(=O)[C@@H](NC(=O)[C@H]1C[C@H](O)CN1C(=O)CCCC(=O)O)[C@@H](C)O[C@@H]1O[C@@H](C)[C@@H](O)C(O)C1O` (some centres not stated): the pIC50 was 4.00.

`CCOC(=O)[C@@H](NC(=O)C(CO)(CO)NC(=O)CCCC(=O)O)[C@@H](C)O[C@@H]1O[C@@H](C)[C@@H](O)C(O)C1O` (some centres not stated) showed a pIC50 of 3.05.

On to `C[C@@H]1O[C@@H](O[C@@H]2CCCC[C@H]2NC(=O)[C@@H]2[C@@H](O)[C@@H](O)CN2C(=O)CCCC(=O)O)C(O)C(O)[C@@H]1O` (some centres not stated), for which the pIC50 was 2.30.

Regarding `CCOC(=O)[C@@H](NC(=O)[C@H]1C[C@@H](O)CN1C(=O)CCCC(=O)O)[C@@H](C)O[C@@H]1O[C@@H](C)[C@@H](O)C(O)C1O` (some centres not stated), the pIC50 is 2.52.

In turn, `CCCCCCCCCCCCCCCCOC(=O)CC[C@H](NCCOCCOCCNC(=O)[C@@H](NC(=O)[C@H]1C[C@H](O)CN1C(=O)CCCC(=O)O)[C@@H](C)O[C@@H]1O[C@@H](C)[C@@H](O)C(O)C1O)C(=O)OCCCCCCCCCCCCCCCC` (some centres not stated) showed a pIC50 of 3.30.
